Two compounds from ChEMBL document CHEMBL1201862, “PubChem BioAssay data set” (2004) can be followed below.

Calls of active or inactive are those of the source. Where only a bound is given, the exact number is not on record here.

Assay [1] deals with T1, 1-phosphatidylinositol 4,5-bisphosphate phosphodiesterase gamma-1 (Homo sapiens, UniProt P19174).
T1 sequence (P19174 whole entry): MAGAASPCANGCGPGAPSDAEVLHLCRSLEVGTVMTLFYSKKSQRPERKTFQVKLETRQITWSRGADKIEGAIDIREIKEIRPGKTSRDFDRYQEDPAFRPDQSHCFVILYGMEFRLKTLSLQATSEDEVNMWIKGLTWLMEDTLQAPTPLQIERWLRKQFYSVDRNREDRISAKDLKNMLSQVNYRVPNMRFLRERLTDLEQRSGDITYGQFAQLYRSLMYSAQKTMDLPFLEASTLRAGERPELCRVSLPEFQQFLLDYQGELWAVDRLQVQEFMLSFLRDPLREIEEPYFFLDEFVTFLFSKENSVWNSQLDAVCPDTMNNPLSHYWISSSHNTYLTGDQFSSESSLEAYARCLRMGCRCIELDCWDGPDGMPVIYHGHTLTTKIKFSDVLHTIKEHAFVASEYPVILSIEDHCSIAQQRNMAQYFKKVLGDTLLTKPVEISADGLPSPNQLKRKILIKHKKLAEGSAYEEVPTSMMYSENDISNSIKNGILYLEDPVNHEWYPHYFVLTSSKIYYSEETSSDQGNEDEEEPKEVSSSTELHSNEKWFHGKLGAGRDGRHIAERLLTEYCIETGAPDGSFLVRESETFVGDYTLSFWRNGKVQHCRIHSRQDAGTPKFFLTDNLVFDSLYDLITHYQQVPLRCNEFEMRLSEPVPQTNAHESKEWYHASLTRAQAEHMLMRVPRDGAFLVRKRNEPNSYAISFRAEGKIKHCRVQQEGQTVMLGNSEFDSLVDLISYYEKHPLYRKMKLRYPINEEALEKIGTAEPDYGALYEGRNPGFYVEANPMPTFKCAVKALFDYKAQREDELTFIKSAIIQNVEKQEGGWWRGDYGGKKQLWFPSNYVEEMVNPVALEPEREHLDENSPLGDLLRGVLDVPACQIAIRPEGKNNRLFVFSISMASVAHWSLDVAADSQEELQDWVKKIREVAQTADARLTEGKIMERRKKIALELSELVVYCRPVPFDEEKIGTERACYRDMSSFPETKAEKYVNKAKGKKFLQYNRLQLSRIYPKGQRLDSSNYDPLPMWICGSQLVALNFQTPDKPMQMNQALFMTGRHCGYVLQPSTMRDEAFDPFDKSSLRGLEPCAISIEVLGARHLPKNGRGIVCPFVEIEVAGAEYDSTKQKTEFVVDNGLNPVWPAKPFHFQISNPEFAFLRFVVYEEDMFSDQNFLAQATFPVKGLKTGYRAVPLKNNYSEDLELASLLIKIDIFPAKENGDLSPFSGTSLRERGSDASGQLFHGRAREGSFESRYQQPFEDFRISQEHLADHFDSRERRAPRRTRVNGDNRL
The experiment in a line: Counterscreen for inhibitors of phospholipase C isozymes (PLC-B3): Fluorescence-based biochemical high throughput dose response assay to identify inhibitors of phospholipase C isozymes (PLC-gamma1). A general note: The purpose of a counterscreen is to sort out artefacts and off-target activity.

Assay [2] addresses Serine/threonine-protein kinase 17A (Homo sapiens, UniProt Q9UEE5). It is filed as functional.
The target in assay [3] is Serine/threonine-protein kinase PAK 1 (Homo sapiens, UniProt Q13153). It is filed as functional.
The target of assay [4] is STE20-like serine/threonine-protein kinase (Homo sapiens, UniProt Q9H2G2). The class given is functional.
The target in assay [5] is Serine/threonine-protein kinase DCLK1 (Homo sapiens, UniProt O15075). The class given is functional.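 Further: affinity for DCLK1 (listed as DCAMKL1) measured as one member of a kinome-wide kinase profiling panel.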
Assay [6] deals with Receptor tyrosine-protein kinase erbB-2 (Homo sapiens, UniProt P04626). Description: Navigating the Kinome. Panel member name: ERBB2. The class given is functional.
Sequence of Receptor tyrosine-protein kinase erbB-2 (P04626 whole entry): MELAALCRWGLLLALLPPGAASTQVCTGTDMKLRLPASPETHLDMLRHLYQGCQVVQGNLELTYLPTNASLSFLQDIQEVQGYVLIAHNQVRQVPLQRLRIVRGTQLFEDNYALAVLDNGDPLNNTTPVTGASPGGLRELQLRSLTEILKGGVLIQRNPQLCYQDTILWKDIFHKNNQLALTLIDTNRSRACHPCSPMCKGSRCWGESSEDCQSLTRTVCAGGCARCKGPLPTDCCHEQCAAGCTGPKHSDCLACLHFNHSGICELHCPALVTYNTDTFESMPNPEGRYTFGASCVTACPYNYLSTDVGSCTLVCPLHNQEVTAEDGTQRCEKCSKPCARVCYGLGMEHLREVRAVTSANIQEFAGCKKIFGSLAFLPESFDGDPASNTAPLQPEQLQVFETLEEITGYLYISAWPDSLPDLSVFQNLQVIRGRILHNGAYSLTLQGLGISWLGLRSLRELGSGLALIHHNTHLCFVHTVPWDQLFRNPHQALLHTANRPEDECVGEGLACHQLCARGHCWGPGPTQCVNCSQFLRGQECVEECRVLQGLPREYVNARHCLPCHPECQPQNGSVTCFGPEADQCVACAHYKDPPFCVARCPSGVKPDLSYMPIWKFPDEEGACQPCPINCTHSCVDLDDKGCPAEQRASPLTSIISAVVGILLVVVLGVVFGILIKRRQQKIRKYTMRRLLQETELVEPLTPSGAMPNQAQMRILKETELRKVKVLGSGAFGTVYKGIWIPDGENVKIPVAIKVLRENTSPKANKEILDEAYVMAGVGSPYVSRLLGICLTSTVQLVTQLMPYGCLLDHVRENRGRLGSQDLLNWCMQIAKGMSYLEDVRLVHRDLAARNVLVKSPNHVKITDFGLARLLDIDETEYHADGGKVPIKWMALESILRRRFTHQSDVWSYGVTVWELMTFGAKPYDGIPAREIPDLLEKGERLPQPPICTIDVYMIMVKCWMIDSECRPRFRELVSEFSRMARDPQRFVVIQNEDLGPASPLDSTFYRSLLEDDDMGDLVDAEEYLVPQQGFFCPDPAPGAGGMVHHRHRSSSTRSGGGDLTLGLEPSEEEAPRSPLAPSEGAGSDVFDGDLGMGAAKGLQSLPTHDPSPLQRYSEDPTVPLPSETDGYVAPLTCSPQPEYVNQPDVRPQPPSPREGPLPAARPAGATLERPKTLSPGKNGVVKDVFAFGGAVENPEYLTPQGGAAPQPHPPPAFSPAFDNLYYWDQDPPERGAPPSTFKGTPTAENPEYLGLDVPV
Assay [7] has as its target Tyrosine-protein kinase SYK (Homo sapiens, UniProt P43405). The class given is functional.
Assay [8] addresses Interleukin-1 receptor-associated kinase 4 (Homo sapiens, UniProt Q9NWZ3). It is filed as functional.
Assay [9] addresses Vascular endothelial growth factor receptor 1 (Homo sapiens, UniProt P17948). It is filed as functional.
Assay [10] has as its target Casein kinase I isoform delta (Homo sapiens, UniProt P48730). The class given is functional.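 Further: measured as one member (CSNK1D) of a kinome panel.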
Another assay addresses Ephrin type-A receptor 2 (Homo sapiens, UniProt P29317). It is filed as functional.
Assay [11] has as its target Serine/threonine-protein kinase pim-3 (Homo sapiens, UniProt Q86V86). It is filed as functional.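 Further: value obtained as one member of a broad kinase panel profiling effort.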
In assay [12] the target is Calcium/calmodulin-dependent protein kinase type II subunit alpha (Homo sapiens, UniProt Q9UQM7). Description: Navigating the Kinome. Panel member name: CAMK2A. It is filed as functional.
Assay [13] concerns the target Tyrosine-protein kinase Fyn (Homo sapiens, UniProt P06241). The class given is functional.
Assay [14] concerns the target Calcium/calmodulin-dependent protein kinase type II subunit gamma (Homo sapiens, UniProt Q13555). It is filed as functional.
Assay [15] deals with Dual specificity tyrosine-phosphorylation-regulated kinase 4 (Homo sapiens, UniProt Q9NR20). It is filed as functional.
In assay [16] the target is Mitogen-activated protein kinase kinase kinase kinase 4 (Homo sapiens, UniProt O95819). It is filed as functional.
For assay [17], the target named is cAMP-dependent protein kinase catalytic subunit alpha (Homo sapiens, UniProt P17612). The class given is functional.
Assay [18] addresses Serine/threonine-protein kinase N2 (Homo sapiens, UniProt Q16513). It is filed as functional.
Assay [19] concerns the target Cyclin-dependent kinase 1 (Homo sapiens, UniProt P06493). The class given is functional.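 Further: Kinome-wide panel profiling, with the target listed as panel member CDC2.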
The target of assay [20] is Casein kinase II subunit alpha (Homo sapiens, UniProt P68400). It is filed as functional.
Assay [21] has as its target Serine/threonine-protein kinase pim-2 (Homo sapiens, UniProt Q9P1W9). It is filed as functional.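 Further: value comes from a broad kinase panel profiling study in which PIM2 was one of the panel members.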
The target of assay [22] is Rho-associated protein kinase 1 (Homo sapiens, UniProt Q13464). The class given is functional.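 Further: measured within a broad kinome-wide panel profiling many kinases.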
Assay [23] deals with Tyrosine-protein kinase ABL1 (Homo sapiens, UniProt P00519). The class given is functional.
Sequence of Tyrosine-protein kinase ABL1 (P00519 whole entry): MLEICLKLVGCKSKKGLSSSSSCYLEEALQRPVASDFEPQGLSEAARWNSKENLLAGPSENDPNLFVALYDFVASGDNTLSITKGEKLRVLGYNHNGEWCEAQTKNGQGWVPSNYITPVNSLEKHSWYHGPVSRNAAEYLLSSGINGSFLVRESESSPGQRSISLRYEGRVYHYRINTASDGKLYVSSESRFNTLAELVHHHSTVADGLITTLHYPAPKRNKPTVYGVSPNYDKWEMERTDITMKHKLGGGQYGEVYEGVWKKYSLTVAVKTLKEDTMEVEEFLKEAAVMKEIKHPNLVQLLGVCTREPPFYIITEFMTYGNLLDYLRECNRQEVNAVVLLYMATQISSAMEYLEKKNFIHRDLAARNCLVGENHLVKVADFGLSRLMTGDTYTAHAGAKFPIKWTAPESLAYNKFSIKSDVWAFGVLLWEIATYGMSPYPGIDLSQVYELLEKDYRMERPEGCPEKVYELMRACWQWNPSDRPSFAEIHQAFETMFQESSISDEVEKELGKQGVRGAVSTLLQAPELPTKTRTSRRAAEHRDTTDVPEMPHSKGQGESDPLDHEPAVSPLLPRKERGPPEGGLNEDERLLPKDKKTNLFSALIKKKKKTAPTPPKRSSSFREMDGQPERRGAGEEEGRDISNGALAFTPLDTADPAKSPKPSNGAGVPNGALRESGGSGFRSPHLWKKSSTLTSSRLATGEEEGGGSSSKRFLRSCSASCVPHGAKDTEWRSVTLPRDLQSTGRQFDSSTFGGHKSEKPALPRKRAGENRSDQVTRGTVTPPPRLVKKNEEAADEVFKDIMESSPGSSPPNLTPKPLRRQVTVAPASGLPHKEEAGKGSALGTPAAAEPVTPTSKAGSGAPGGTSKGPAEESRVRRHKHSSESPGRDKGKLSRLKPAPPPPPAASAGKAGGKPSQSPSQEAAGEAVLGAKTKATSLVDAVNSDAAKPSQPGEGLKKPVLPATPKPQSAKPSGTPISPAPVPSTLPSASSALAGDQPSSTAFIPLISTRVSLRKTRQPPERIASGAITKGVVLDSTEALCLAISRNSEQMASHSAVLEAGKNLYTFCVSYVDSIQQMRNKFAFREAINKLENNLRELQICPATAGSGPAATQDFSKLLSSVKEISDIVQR
The target of assay [24] is Lymphokine-activated killer T-cell-originated protein kinase (Homo sapiens, UniProt Q96KB5). It is filed as functional.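 Further: value comes from a kinase panel screen in which TOPK was one of the panel members.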
The next assay has as its target Activated CDC42 kinase 1 (Homo sapiens, UniProt Q07912). Description: Navigating the Kinome. Panel member name: ACK1. The class given is functional.
Assay [25] deals with Glycogen synthase kinase-3 beta (Homo sapiens, UniProt P49841). The class given is functional.
Sequence of Glycogen synthase kinase-3 beta (P49841 whole entry): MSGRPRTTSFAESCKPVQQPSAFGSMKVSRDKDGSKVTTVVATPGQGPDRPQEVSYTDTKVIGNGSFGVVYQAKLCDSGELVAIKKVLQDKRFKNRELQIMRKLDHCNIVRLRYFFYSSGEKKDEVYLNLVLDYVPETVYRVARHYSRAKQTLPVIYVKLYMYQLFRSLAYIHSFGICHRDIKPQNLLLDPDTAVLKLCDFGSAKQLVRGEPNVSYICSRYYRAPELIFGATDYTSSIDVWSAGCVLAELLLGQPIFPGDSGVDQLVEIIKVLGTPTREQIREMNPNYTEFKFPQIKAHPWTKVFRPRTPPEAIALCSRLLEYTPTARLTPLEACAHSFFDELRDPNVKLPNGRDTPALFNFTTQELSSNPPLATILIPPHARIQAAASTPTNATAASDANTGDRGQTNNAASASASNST
Assay [26] addresses 5'-AMP-activated protein kinase catalytic subunit alpha-1 (Homo sapiens, UniProt Q13131). The class given is functional.

Sequence of Serine/threonine-protein kinase 17A (Q9UEE5 whole entry): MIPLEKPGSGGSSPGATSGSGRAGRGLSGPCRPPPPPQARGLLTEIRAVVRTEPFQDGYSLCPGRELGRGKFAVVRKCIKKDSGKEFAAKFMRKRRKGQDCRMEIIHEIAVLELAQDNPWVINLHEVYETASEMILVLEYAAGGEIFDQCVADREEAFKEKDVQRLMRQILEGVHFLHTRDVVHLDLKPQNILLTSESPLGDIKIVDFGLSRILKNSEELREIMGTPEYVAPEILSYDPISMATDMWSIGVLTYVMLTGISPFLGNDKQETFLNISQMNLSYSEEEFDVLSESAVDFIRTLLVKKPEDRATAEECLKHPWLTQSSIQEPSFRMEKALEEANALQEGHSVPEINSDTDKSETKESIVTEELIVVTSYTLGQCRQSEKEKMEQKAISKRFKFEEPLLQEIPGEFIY
Sequence of Calcium/calmodulin-dependent protein kinase type II subunit gamma (Q13555 whole entry): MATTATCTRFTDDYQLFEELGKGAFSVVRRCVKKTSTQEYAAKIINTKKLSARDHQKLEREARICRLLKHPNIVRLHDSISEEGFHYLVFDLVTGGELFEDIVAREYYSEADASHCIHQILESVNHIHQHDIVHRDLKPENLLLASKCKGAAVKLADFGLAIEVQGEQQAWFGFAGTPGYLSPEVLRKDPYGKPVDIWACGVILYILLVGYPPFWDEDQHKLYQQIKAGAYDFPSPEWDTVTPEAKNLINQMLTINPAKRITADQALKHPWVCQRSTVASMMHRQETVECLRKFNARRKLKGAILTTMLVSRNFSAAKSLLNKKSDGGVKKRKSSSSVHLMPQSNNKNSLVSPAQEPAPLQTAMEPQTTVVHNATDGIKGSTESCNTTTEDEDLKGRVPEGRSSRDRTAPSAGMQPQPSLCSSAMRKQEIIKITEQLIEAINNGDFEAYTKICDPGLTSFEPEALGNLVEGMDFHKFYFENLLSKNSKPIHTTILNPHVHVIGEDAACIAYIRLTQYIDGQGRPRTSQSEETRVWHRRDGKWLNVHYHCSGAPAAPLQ
Sequence of Serine/threonine-protein kinase N2 (Q16513 whole entry): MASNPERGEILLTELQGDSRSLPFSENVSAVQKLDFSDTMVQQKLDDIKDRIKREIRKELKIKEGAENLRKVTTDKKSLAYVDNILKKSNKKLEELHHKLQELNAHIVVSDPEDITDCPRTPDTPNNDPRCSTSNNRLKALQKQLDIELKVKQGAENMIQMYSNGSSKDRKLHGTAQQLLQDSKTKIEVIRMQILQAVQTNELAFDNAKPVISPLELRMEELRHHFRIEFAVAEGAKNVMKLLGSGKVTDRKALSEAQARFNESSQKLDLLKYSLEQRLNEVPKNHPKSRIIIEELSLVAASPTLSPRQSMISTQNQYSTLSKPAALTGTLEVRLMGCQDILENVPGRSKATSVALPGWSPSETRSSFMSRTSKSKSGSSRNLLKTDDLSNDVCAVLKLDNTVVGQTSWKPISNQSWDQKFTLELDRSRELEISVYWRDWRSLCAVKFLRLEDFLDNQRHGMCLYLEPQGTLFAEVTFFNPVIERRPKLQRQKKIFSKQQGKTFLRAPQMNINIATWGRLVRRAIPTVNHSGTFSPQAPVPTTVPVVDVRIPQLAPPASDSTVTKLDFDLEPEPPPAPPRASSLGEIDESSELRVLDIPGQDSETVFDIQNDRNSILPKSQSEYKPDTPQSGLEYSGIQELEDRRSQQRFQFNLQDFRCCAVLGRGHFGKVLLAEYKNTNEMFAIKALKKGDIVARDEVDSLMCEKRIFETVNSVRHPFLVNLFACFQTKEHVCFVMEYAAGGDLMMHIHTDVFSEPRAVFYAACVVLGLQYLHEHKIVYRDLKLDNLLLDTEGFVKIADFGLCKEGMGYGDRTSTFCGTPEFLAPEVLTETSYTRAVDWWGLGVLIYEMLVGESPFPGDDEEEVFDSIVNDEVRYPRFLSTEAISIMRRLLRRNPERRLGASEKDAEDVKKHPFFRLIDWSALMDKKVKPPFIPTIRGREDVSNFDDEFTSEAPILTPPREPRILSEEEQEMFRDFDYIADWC
Sequence of Cyclin-dependent kinase 1 (P06493 whole entry): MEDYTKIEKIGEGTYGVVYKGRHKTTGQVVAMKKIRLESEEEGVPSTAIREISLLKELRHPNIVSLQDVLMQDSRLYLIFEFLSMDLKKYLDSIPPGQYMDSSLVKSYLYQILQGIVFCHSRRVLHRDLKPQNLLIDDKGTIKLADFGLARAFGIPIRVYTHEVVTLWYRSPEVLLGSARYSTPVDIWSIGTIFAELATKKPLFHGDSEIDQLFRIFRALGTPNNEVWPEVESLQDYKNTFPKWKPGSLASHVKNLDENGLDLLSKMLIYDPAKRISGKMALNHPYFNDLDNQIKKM

One may read the IC50 as the point on the concentration scale where inhibition reaches its midpoint. As to `Cc1ccc(/C=C2/C(=O)c3ccc(C(=O)O)cc3C2=O)o1`, the IC50 in assay [1] was > 122000 nM (inactive).
As a reminder, the Ki is the equilibrium dissociation constant of an inhibitor or competing ligand from its target. Regarding `Clc1cc(NC2CCCCC2)nc(-c2c[nH]c3ncccc23)n1`, the Ki is > 2510 nM (inactive) in [2]; 1580 nM (active) in [3]; 501 nM (active) in assay [4]; > 10000 nM (inactive) in assay [5]; > 1580 nM (inactive) in [6]; 316 nM (active) in [7]. The inhibition constant (Ki) in assay [8] is 1260 nM (active); in assay [9] it was > 398 nM (inactive); in assay [10] it was 1260 nM (active); at Ephrin type-A receptor 2 it was > 3160 nM (inactive); in [11] it was 6310 nM (active); in assay [12], > 3160 nM (inactive). Further, the Ki in assay [13] was > 794 nM (inactive); in assay [14], 1580 nM (active); in [15], 1260 nM (active); in [16] it was > 200 nM (inactive); in [17], 398 nM (active); in [18], 126 nM (active). Moreover, the inhibition constant Ki is 3160 nM (active) in [19]; 251 nM (active) in assay [20]; > 2000 nM (inactive) in assay [21]; > 100 nM (inactive) in [22]; > 631 nM (inactive) in assay [23]; 6310 nM (active) in [24]. Further, the Ki at Activated CDC42 kinase 1 is > 3980 nM (inactive); in assay [25], 1260 nM (active); in assay [26] it was > 2000 nM (inactive).
